The record followed here is patent US6600015B2, “Selective linear peptides with melanocortin-4 receptor (MC4-R) agonist activity” (Hoffmann-La Roche Inc., priority 2000, dated 2003).

Non-standard residues stand in square brackets, D forms with d. Residues, ends and D or L forms follow the SMILES beside them. *: point of attachment. Butyryl = CCCC(=O)*

The EC50 is the concentration that produces a half-maximal response.

The target of test [1] is T1, MC-4 receptor (Homo sapiens, UniProt P32245).
T1 construct: expressed in transfected cells; host or cells: 293 cells (293MC4, obtained from Dr. Wei Gu, Millenium)
T1 sequence (P32245 whole entry): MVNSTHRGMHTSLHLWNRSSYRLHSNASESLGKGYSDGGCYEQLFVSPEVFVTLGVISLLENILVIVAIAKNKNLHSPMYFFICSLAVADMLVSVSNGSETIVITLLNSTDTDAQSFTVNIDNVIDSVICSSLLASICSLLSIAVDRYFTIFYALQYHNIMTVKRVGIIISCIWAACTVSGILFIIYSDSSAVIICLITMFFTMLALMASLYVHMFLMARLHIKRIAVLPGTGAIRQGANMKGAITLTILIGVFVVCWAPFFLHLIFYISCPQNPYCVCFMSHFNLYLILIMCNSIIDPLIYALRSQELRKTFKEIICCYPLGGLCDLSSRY
In words: Agonist assay: cAMP response in 293 cells transfected with MC-4 receptor (Biotrak-cAMP SPA). As to conditions: cAMP increase, read-out: EC50 for MC4-R agonist activity. The class given is cell-based. The protocol:
Description: 293 cells transfected with either the MC-4 receptor or MC-1 receptor were grown in 96 well plates. The cells were stimulated with either 100 nM NDP-αMSH or screening compounds. Cyclic AMP was extracted from the cells and concentrations were determined using a Biotrak-cAMP SPA assay. Agonists were identified as those compounds causing an increase in cAMP. […] Wei Gu, Millenium) were cultured in 75cm^2flasks in D-MEM supplemented with 10% FCS and 500 μg/ml G418. Cells were trypsinized and split 1:3 into 96 well flat-bottom tissue culture treated plates. Cells were stimulated at confluence (day 2-4). cAMP Response: Compounds serially diluted in 100% DMSO were further diluted 1:200 (2.5 μl compound dilution+500 μl media) in D-MEM containing 10% FBS and 0.1 mM IBMX. For unstimulated cells, 2.5 μl of DMSO was added to 500 μl of media. For NDP-αMSH stimulated cells, 2.5 μl of 20 μM NDP-αMSH in 100% DMSO was added to 500 μl of media (final conc. 100 nM). Final concentration of DMSO in all wells was 0.5%. Note: Each sample was run in duplicate on separate plates Culture medium was removed from confluent 96 well culture plates and replaced with 200 μl of above dilutions into the appropriate wells . The plates were incubated for 1 hr at RT. […] [125I]cAMP binding to the SPA beads was determined by counting each plate for 2 minutes on a Packard TopCount™. […]

In test [2] the target is T2, MC-1 receptor (Homo sapiens, UniProt Q01726).
T2 construct: expressed in transfected cells; host or cells: 293 cells
T2 sequence (Q01726 whole entry): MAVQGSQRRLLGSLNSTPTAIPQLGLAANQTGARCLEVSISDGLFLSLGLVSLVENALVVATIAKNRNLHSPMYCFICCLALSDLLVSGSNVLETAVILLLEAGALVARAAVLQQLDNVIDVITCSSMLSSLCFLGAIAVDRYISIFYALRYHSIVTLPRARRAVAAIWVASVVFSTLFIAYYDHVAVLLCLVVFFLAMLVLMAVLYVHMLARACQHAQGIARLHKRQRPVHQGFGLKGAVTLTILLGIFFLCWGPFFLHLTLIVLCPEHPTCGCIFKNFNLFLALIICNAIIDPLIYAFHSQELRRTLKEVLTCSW
Put plainly: Agonist assay: cAMP response in 293 cells transfected with MC-1 receptor (Biotrak-cAMP SPA). The class given is cell-based. As to conditions: MC1-R versus MC4-R agonist activity, transfected 293 cells.
Description: Culture medium was removed from confluent 96 well culture plates and replaced with 200 μl of above dilutions into the appropriate wells . The plates were incubated for 1 hr at RT. The media was removed, and the plates were washed 1× with 200^μl well of PBS. CAMP was extracted by the addition of 60 μl 70% ethanol (stored in the refrigerator). […]
cAMP Assay: The extracted samples and all reagents included in the kit were brought to room temperature. […] [125I]cAMP binding to the SPA beads was determined by counting each plate for 2 minutes on a Packard TopCount™. […]

With `CCCCC(=O)NC1(C(=O)N[C@H](Cc2ccccc2)C(=O)N[C@@H](CCCNC(=N)N)C(=O)N[C@@H](Cc2c[nH]c3ccccc23)C(=O)NCC(N)=O)CC=C(c2ccccc2)CC1` (single isomer, unassigned) [Penta-Ape-(D)Phe-Arg-Trp-Gly-NH2], the EC50 in test [1] was under 500 nM.

Regarding `CCCC(=O)N[C@@H](Cc1c[nH]cn1)C(=O)N[C@H](Cc1ccccc1)C(=O)N[C@@H](CCCNC(=N)N)C(=O)N[C@@H](Cc1c[nH]c2ccccc12)C(=O)NCC(N)=O` [Example 30, Bu-His-(D)Phe-Arg-Trp-Gly-NH2] (Butyryl-H[dF]RWG-NH2), in test [2], the “MC1-R agonist activity compared with MC4-R agonist activity” value was “greater MC1-R agonist activity than MC4-R agonist activity”.
